Experimental data from patent US8541365B2, “Dendrimeric compounds comprising amino acids, hyperbranched core compound, process for preparation of dendrimeric compounds comprising amino acids and hyperbranched core compound, and use thereof” (Instytut Chemii Organicznej, Polska Akademia Nauk, priority 2008, dated 2013).
Where two headings read alike, the source gives them in different places.

What was measured:
[1] = system: human melanoma cells (MEW 155); conditions: MEW 155 cells, 3 days culture
Experimental: Human melanoma cells (MEW 155) received from Institute of Oncology were inoculated on Petri dishes (Ø3 cm, Nunc) to the number of about 75 000, suspended in 3 ml of Eagle medium+10% FBS+antibiotics. Immediately after the inoculation, solutions of tested substances were added to the cells (a substance +20 ml PBS) at 0.5 ml per dish. After culturing for 3 days, numbers of cells (all, dead and alive) at each dish were determined with NucleoCounter apparatus (Chemometec).

C. albicans ATCC 10231 = system: C. albicans ATCC 10231
Experimental: Values of a minimal inhibitory concentration—MIC of compounds according to the invention for bacterial strains were assayed by a standard method of microdilutions on a liquid substrate (Clinical and Laboratory Standards Institute 2007. Methods for Dilution Antimicrobial Susceptibility Tests for Bacteria That Grow Aerobically. Approved Standard—Seventh Edition. M7-A7. Clinical and Laboratory Standards Institute, Wayne, Pa., USA).
A series of double dilutions of the tested compounds in DMSO was prepared. They were then diluted 95× in CAMHB (Cation Adjusted Mueller—Hinton Broth).
Bacteria were cultured for 24 h at 35° C. under aerobic conditions on a solid TSA (Triptic Soy Agar) medium. A volume of a proper test was 0.1 ml and was composed of: 0.005 ml of a saline suspension of bacteria at a density of 10^7 CFU/ml (final bacteria amount of 5×10^5/ml) and 0.095 ml of a tested compound CAMHB solution. Final concentrations of compounds in the proper test were (μg/ml): 128, 64, 32, 16, 8, 4, 2, 1.
e) C. albicans ATCC 10231.

S. aureus ATTC 43300 = type: cell-based, Staphylococus aureus subsp. aureus; conditions: S. aureus ATTC 43300; microdilution in CAMHB, 18 h at 33° C.
Experimental: (§1) Titration plates with a, b, d strains were incubated for 18 h at 35° C. under aerobic conditions, and the c strain was incubated for 18 h at 33° C. under aerobic conditions.
c) Staphylococus aureus subsp. aureus ATCC 43300,

S. aureus ATCC 25923 = type: cell-based, Staphylococus aureus subsp. aureus; conditions: S. aureus ATCC 25923; microdilution in CAMHB, 18 h at 35° C.
Experimental: as §1
b) Staphylococus aureus subsp. aureus ATCC 25923,

E. coli ATTC 25922 = type: cell-based, Escherichia coli; conditions: E. coli ATTC 25922; microdilution in CAMHB, 18 h at 35° C.
Experimental: as §1
d) Escherichia coli ATCC 25922

P. aeruginosa ATTC 27853 = type: cell-based, Pseudomonas aeruginosa; conditions: P. aeruginosa ATTC 27853; microdilution in CAMHB, 18 h at 35° C.
Experimental: as §1
a) Pseudomonas aeruginosa ATCC 27853,

Compound | Live cells (%) ([1]; concentration 25.7 μMol dm^−3) | Minimal inhibitory concentration (MIC) (C. albicans ATCC 10231) [μM/L] | Minimal inhibitory concentration (MIC) (S. aureus ATTC 43300) [μM/L] | Minimal inhibitory concentration (MIC) (S. aureus ATCC 25923) [μM/L] | Minimal inhibitory concentration (MIC) (E. coli ATTC 25922) [μM/L] | Minimal inhibitory concentration (MIC) (P. aeruginosa ATTC 27853) [μM/L] | Live cells (%) ([1]; concentration 10.0 μMol dm^−3)
CCCCCCCCCCCCNC(=O)[C@H](CCCN(CCC(=O)NCCNC(=O)[C@H](CCCCN)NC(=O)OCc1ccccc1Cl)CCC(=O)NCCNC(=O)[C@H](CCCCN)NC(=O)OCc1ccccc1Cl)N(CCC(=O)NCCNC(=O)[C@H](CCCCN)NC(=O)OCc1ccccc1Cl)CCC(=O)NCCNC(=O)[C@H](CCCCN)NC(=O)OCc1ccccc1Cl [Compound 109] | 1.5 | 69 |  |  |  |  | 
NC[C@H](NC(=O)OCc1ccccc1)C(=O)NCCNC(=O)CCN(CCCC[C@@H](C(=O)NCCc1c[nH]c2ccccc12)N(CCC(=O)NCCNC(=O)[C@H](CN)NC(=O)OCc1ccccc1)CCC(=O)NCCNC(=O)[C@H](CN)NC(=O)OCc1ccccc1)CCC(=O)NCCNC(=O)[C@H](CN)NC(=O)OCc1ccccc1 [Compound 105] |  | 81 | 81 | 38 | 81 | 81 | 97.7
